Values after ≈ are worked out from the molar mass of the structure shown.
Legend:
[1] = Solubility of the compound in 0.1 M phosphate buffer at 600 uM at pH 7.4 after 24 hrs by LC/MS/MS analysis; settings: for solubility at 24 h, 600 µM: pH 7.4
[2] = Solubility of the compound in PBS at pH 7.4; assay type: physicochemical
[3] = Solubility of the compound at pH 7.4; assay type: physicochemical; settings: buffer
[4] = Solubility of the compound in water at pH 7.4; assay type: physicochemical
[5] = Solubility of the compound in water; assay type: physicochemical
[6] = Solubility of the compound at pH 7.95; assay type: physicochemical; settings: buffer
[7] = Solubility of the compound in water at pH 7; assay type: physicochemical
[8] = Solubility of the compound in Mcllvaine buffer at pH 7.4; assay type: physicochemical; settings: McIlvaine buffer
[9] = Solubility of the compound; assay type: physicochemical

Row | SMILES | solubility at 24 h, 600 µM ([1]; 0.1 M phosphate buffer) [µM] | other results
1 | COCC1CN=C(c2ccccc2Cl)c2cc(Br)ccc2N1C (centres undefined) [METACLAZEPAM] | 3.52 (≈ 1.39 µg/mL) | 
2 | CC(NC(C)(C)C)C(=O)c1cccc(Cl)c1 (centres undefined) [BUPROPION] | 328 (≈ 78.6 µg/mL) | solubility ([2]; PBS, read-out: solubility): 10 mg/mL (≈ 41700 µM)
3 | CN(C)CCC[C@@]1(c2ccc(F)cc2)OCc2cc(C#N)ccc21 [ESCITALOPRAM] | > 500 | 
4 | CCCN(CCC)C(=O)Cc1c(-c2ccc(Cl)cc2)nc2ccc(Cl)cn12 [ALPIDEM] | 0.75 (≈ 0.303 µg/mL) | solubility [3]: 0.1 µM
5 | CCCCN1CCCCC1C(=O)Nc1c(C)cccc1C (centres undefined) [BUPIVACAINE] | 352 (≈ 102 µg/mL) | solubility [4]: 0.42 mg/mL (≈ 1460 µM)
6 | CCN[C@@H](C)Cc1cccc(C(F)(F)F)c1 [DEXFENFLURAMINE] | 500 (≈ 116 µg/mL) | 
7 | NC(=O)OCC(COC(N)=O)c1ccccc1 [FELBAMATE] | > 500 | 
8 | NC(=O)N1c2ccccc2CC(=O)c2ccccc21 [OXCARBAZEPINE] | 245 (≈ 61.8 µg/mL) | solubility [5]: 0.308 mg/mL
9 | CC1(C)O[C@@H]2[C@@H](CO[C@@]3(COS(N)(=O)=O)OC(C)(C)O[C@@H]23)O1 [TOPIRAMATE] | > 500 | solubility [5]: 9.8 mg/mL
10 | CC(N)Cc1ccccc1 (centres undefined) [AMPHETAMINE] | > 500 | 
11 | CNCC[C@@H](Oc1ccccc1C)c1ccccc1 [ATOMOXETINE] | > 500 | 
12 | CCOc1ccccc1OC(c1ccccc1)C1CNCCO1 (centres undefined) [REBOXETINE] | > 500 | 
13 | CCCCCc1cc(O)c2c(c1)OC(C)(C)[C@@H]1CCC(C)=C[C@@H]21 [DRONABINOL] | > 500 | 
14 | OCCOCCN1CCN(C2=Nc3ccccc3Sc3ccccc32)CC1 [QUETIAPINE] |  | solubility at 24 h, 600 µM ([1]; buffer): 310 µM (≈ 119 µg/mL)
15 | CCN(CC)C(=O)C1(c2ccccc2)CC1CN (centres undefined) | > 500 | 
16 | NC(=O)C[S+]([O-])C(c1ccccc1)c1ccccc1 (centres undefined) [MODAFINIL] | > 500 | 
17 | CNS(=O)(=O)CCc1ccc2[nH]cc(C3CCN(C)CC3)c2c1 | > 500 | 
18 | CCN1CCCC1CNC(=O)c1cc(S(=O)(=O)CC)c(N)cc1OC (centres undefined) [AMISULPRIDE] | > 500 | 
19 | O=C1NC(=O)C(c2ccccc2)(c2ccccc2)N1 [PHENYTOIN] | 80 (≈ 20.2 µg/mL) | solubility [5]: 0.032 mg/mL
20 | O=C(O)C1N=C(c2ccccc2)c2cc(Cl)ccc2NC1=O (centres undefined) [CLORAZEPIC ACID] | > 495 | 
21 | CNCC[C@H](Oc1cccc2ccccc12)c1cccs1 [DULOXETINE] |  | solubility at 24 h, 600 µM ([1]; buffer): > 500 µM

Row | SMILES | solubility at 24 h, 600 µM ([1]; 0.1 M phosphate buffer) [µM] | other results
22 | O=C(c1ccccc1)c1ccc2n1CCC2C(=O)O (centres undefined) [KETOROLAC] | > 459 | 
23 | CN1C2CCCC1CC(NC(=O)c1nn(C)c3ccccc13)C2 (centres undefined) [GRANISETRON] | > 500 | 
24 | CN1C(=O)CN=C(c2ccccc2F)c2cc([N+](=O)[O-])ccc21 [FLUNITRAZEPAM] | 54 (≈ 16.9 µg/mL) | 
25 | CCC(=O)O[C@](Cc1ccccc1)(c1ccccc1)[C@H](C)CN(C)C [PROPOXYPHENE] | 250 (≈ 84.9 µg/mL) | 
26 | Cc1nnc2n1-c1ccc(Cl)cc1C(c1ccccc1Cl)=NC2 [TRIAZOLAM] | 35.9 (≈ 12.3 µg/mL) | 
27 | CCCN1C[C@H](CSC)C[C@@H]2c3cccc4[nH]cc(c34)C[C@H]21 [PERGOLIDE] | 2.1 (≈ 0.66 µg/mL) | 
28 | COCCCC/C(=N\OCCN)c1ccc(C(F)(F)F)cc1 [FLUVOXAMINE] | > 500 | 
29 | O=C1NCCN1CCN1CCC(c2cn(-c3ccc(F)cc3)c3ccc(Cl)cc23)CC1 [SERTINDOLE] | 18.1 (≈ 7.98 µg/mL) | 
30 | CN(C)CCCC1(c2ccc(F)cc2)OCc2cc(C#N)ccc21 (centres undefined) [CITALOPRAM] | > 500 | 
31 | COc1ccc(C(=O)N2CCCC2=O)cc1 | 500 (≈ 110 µg/mL) | 
32 | Cc1ncc2n1-c1ccc(Cl)cc1C(c1ccccc1F)=NC2 [MIDAZOLAM] | 392 (≈ 128 µg/mL) | solubility [6]: 0.055 mg/mL (≈ 169 µM)
33 | CNS(=O)(=O)Cc1ccc2[nH]cc(CCN(C)C)c2c1 | > 500 | 
34 | Cc1nnc2n1-c1ccc(Cl)cc1C(c1ccccc1)=NC2 [ALPRAZOLAM] | 213 (≈ 65.8 µg/mL) | solubility [7]: 0.04 mg/mL (≈ 130 µM)
35 | O=C1Nc2ccc(Cl)cc2C(c2ccccc2Cl)=NC1O (centres undefined) [LORAZEPAM] |  | solubility [5]: 0.08 mg/mL; solubility at 24 h, 600 µM ([1]; buffer): 24 µM (≈ 7.71 µg/mL)
36 | CCCN(CCC)CCc1cccc2c1CC(=O)N2 [ROPINIROLE] | > 500 | 
37 | CC(C)Cc1ccc(C(C)C(=O)O)cc1 (centres undefined) [IBUPROFEN] |  | solubility ([2]; buffer): 6.02 mg/mL (≈ 29200 µM); solubility at 24 h, 600 µM ([1]; buffer): > 500 µM
38 | NC(=O)CCC/N=C(\c1ccc(Cl)cc1)c1cc(F)ccc1O [PROGABIDE] | 55.2 (≈ 18.5 µg/mL) | 
39 | Nc1nnc(-c2cccc(Cl)c2Cl)c(N)n1 [LAMOTRIGINE] | 307 (≈ 78.6 µg/mL) | solubility [8]: 0.00048 mg/mL (≈ 1.87 µM)
40 | CC[C@@H](C(N)=O)N1CCCC1=O | > 500 | solubility [5]: 1000 mg/mL
41 | CN1C[C@H](C(=O)N[C@]2(C)O[C@@]3(O)[C@@H]4CCCN4C(=O)[C@H](Cc4ccccc4)N3C2=O)C[C@@H]2c3cccc4[nH]cc(c34)C[C@H]21 [DIHYDROERGOTAMINE] | 37 (≈ 21.6 µg/mL) | 
42 | C=CC(N)CCC(=O)O (centres undefined) [VIGABATRIN] | > 500 | 

Row | SMILES | solubility at 24 h, 600 µM ([1]; 0.1 M phosphate buffer) [µM] | other results
43 | Cc1cc2c(s1)Nc1ccccc1N=C2N1CCN(C)CC1 [OLANZAPINE] | > 500 | 
44 | Oc1ccc2c(c1)[C@@]13CCCC[C@@]1(O)[C@@H](C2)N(CC1CCC1)CC3 [BUTORPHANOL] | > 500 | 
45 | CCN1CCC[C@H]1CNC(=O)c1c(OC)ccc(Br)c1OC [REMOXIPRIDE] | > 500 | 
46 | Fc1ccc([C@@H]2CCNC[C@H]2COc2ccc3c(c2)OCO3)cc1 [PAROXETINE] | > 500 | 
47 | CCc1nn(CCCN2CCN(c3cccc(Cl)c3)CC2)c(=O)n1CCOc1ccccc1 [NEFAZODONE] | 9.9 (≈ 4.65 µg/mL) | 
48 | O=C1Cc2cc(CCN3CCN(c4nsc5ccccc45)CC3)c(Cl)cc2N1 [ZIPRASIDONE] | 1.05 (≈ 0.434 µg/mL) | solubility [9]: 0.08 µg/mL (≈ 0.194 µM)
49 | O=C(NCCN1CCOCC1)c1ccc(Cl)cc1 [MOCLOBEMIDE] | > 500 | 
50 | O=C1CC2(CCCC2)CC(=O)N1CCCCN1CCN(c2ncccn2)CC1 [BUSPIRONE] | > 500 | 
51 | CC(C)CC(N(C)C)C1(c2ccc(Cl)cc2)CCC1 (centres undefined) [SIBUTRAMINE] | 143 (≈ 40 µg/mL) | 
52 | Fc1ccccc1C1=NCC(=S)N(CC(F)(F)F)c2ccc(Cl)cc21 [QUAZEPAM] | 0.3 (≈ 0.116 µg/mL) | 
53 | CCC1(c2cccc(O)c2)CCCCN(C)C1 (centres undefined) [MEPTAZINOL] | > 500 | 
54 | O=C1CCc2ccc(OCCCCN3CCN(c4cccc(Cl)c4Cl)CC3)cc2N1 [ARIPIPRAZOLE] | 1.03 (≈ 0.462 µg/mL) | 
55 | NS(=O)(=O)Cc1noc2ccccc12 [ZONISAMIDE] | > 500 | 
56 | Cc1ccc(-c2nc3ccc(C)cn3c2CC(=O)N(C)C)cc1 [ZOLPIDEM] | 260 (≈ 79.9 µg/mL) | solubility [3]: > 250 µM
57 | CCCC(CCC)C(=O)O [VALPROIC ACID] | > 500 | 
58 | COC(=O)C(c1ccccc1)C1CCCCN1 (centres undefined) [METHYLPHENIDATE] | 411 (≈ 95.9 µg/mL) | 
59 | COc1cccc(C2(O)CCCCC2CN(C)C)c1 (centres undefined) [TRAMADOL] | > 500 | 
60 | CN1[C@@H]2CC[C@H]1C[C@@H](OC(=O)c1c[nH]c3ccccc13)C2 [TROPISETRON] | > 500 | 
61 | CN1CCC[C@@H]1Cc1c[nH]c2ccc(CCS(=O)(=O)c3ccccc3)cc12 | > 500 | 
62 | CN1CCN2c3ncccc3Cc3ccccc3C2C1 (centres undefined) [MIRTAZAPINE] | > 500 | 
63 | CN1CCN(C2=Nc3cc(Cl)ccc3Nc3ccccc32)CC1 [CLOZAPINE] | > 420 | 

Row | SMILES | solubility at 24 h, 600 µM ([1]; 0.1 M phosphate buffer) [µM] | other results
64 | Cc1ccc(C(=O)c2cc(O)c(O)c([N+](=O)[O-])c2)cc1 [TOLCAPONE] | > 500 | solubility [3]: 0.115 mg/mL
65 | CN(C)CCc1c[nH]c2ccc(Cn3cncn3)cc12 [RIZATRIPTAN] | > 500 | 
66 | CCc1cc2c(s1)-n1c(C)nnc1CN=C2c1ccccc1Cl [ETIZOLAM] | > 480 | 
67 | NC(=O)N1c2ccccc2C=Cc2ccccc21 [CARBAMAZEPINE] | > 490 | 
68 | Cc1nc2n(c(=O)c1CCN1CCC(c3noc4cc(F)ccc34)CC1)CCCC2 [RISPERIDONE] | > 444 | 
69 | C=CCN1CCc2nc(N)sc2CC1 [TALIPEXOLE] | 133 (≈ 27.8 µg/mL) | 
70 | O=C1CN=C(c2ccccn2)c2cc(Br)ccc2N1 [BROMAZEPAM] | 334 (≈ 106 µg/mL) | 
71 | CN[C@H]1CC[C@@H](c2ccc(Cl)c(Cl)c2)c2ccccc21 [SERTRALINE] |  | solubility ([1]; buffer, pH 7.4, 24 h, 600 µM): 350 µM (≈ 107 µg/mL)
72 | CN(C)CCc1c[nH]c2ccc(C[C@H]3COC(=O)N3)cc12 [ZOLMITRIPTAN] | > 500 | 
73 | OC[C@@H](O)CN1CCN(c2ccccc2)CC1 [LEVODROPROPIZINE] | > 500 | 
74 | NCC1(CC(=O)O)CCCCC1 [GABAPENTIN] | > 500 | solubility [3]: 0.441 mg/mL
75 | O=C1CC[C@@]2(O)[C@H]3Cc4ccc(O)c5c4[C@@]2(CCN3CC2CC2)[C@H]1O5 [NALTREXONE] | > 500 | 
76 | O=C1CN=C(c2ccccc2Cl)c2cc([N+](=O)[O-])ccc2N1 [CLONAZEPAM] |  | solubility [5]: < 0.1 mg/mL; solubility at 24 h, 600 µM ([1]; buffer): 30.2 µM (≈ 9.53 µg/mL)
77 | CCCN[C@H]1CCc2nc(N)sc2C1 [PRAMIPEXOLE] |  | solubility at 24 h, 600 µM ([1]; buffer): > 500 µM; solubility [9]: > 10000 µg/mL
78 | COC1=C(OC)C(=O)C(CCCCCCCCCCO)=C(C)C1=O [IDEBENONE] | 16 (≈ 5.42 µg/mL) | solubility [5]: 23.6 µM
79 | Cc1ccsc1C(=CCCN1CCC[C@@H](C(=O)O)C1)c1sccc1C [TIAGABINE] | > 500 | 
80 | Nc1c2c(nc3ccccc13)CCCC2 [TACRINE] |  | solubility [5]: 0.217 mg/mL; solubility at 24 h, 600 µM ([1]; buffer): > 500 µM
81 | CCOC(=O)Nc1ccc(NCc2ccc(F)cc2)nc1N [FLUPIRTINE] | > 500 | 
82 | O=C(O[C@@H]1C[C@@H]2C[C@H]3C[C@H](C1)N2CC3=O)c1c[nH]c2ccccc12 [DOLASETRON] | 195 (≈ 63.3 µg/mL) | 
83 | CN1CCN(C(=O)OC2c3nccnc3C(=O)N2c2ccc(Cl)cn2)CC1 (centres undefined) [ZOPICLONE] | 219 (≈ 85.2 µg/mL) | 
84 | C[C@@](Cc1ccc(O)c(O)c1)(NN)C(=O)O.O [CARBIDOPA] | > 500 | 

— ChEMBL document CHEMBL1287767, “Experimental solubility profiling of marketed CNS drugs, exploring solubility limit of CNS discovery candidate” (Bioorg Med Chem Lett, 2010)
